# Columns and labels:
# [1] = biological target: T1, Rat Hepatic V1 Receptors (Rattus norvegicus, UniProt P30560); assay: Binding Assay to Rat Hepatic V1 Receptors; details: rat liver membranes; read-out: V1 IC50
# T1 construct: Rat liver plasma membranes expressing the vasopressin V1 receptor subtypes; from tissue; host or cells: rat liver plasma membranes
# [2] = biological target: T2, Rat Kidney Medullary V2 Receptors (Rattus norvegicus, UniProt Q00788); assay: Binding Assay to Rat Kidney Medullary V2 Receptors; details: rat kidney medulla membranes; read-out: V2 IC50
# T2 construct: Medullary tissues from rat kidneys are dissected out; from tissue; host or cells: rat kidney medulla membranes
# T2 sequence (Q00788 whole entry): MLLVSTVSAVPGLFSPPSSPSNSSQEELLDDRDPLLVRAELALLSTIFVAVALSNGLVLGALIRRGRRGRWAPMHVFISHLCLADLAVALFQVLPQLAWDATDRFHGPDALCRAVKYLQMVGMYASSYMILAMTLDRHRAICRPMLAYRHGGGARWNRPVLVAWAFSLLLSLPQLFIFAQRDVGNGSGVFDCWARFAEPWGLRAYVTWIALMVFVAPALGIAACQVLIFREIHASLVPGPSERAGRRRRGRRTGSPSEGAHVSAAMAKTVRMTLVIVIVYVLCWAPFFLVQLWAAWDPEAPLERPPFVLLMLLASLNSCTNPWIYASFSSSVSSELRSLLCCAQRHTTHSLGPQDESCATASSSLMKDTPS
# Summary of the method: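 IC50 derived from competition curves; bound tritium counted by liquid scintillation after filtration. Rat medullary kidney membranes (Tris-HCl pH 7.4, BSA, PMSF) were incubated 120 min to equilibrium with radioligand and test compound (added in 50% DMSO). Nonspecific binding: 1.0 μM unlabeled ligand.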
# [3] = tested on: Vasopressin V2; assay: Vasopressin V2 Antagonist Activity in Conscious Hydrated Rats; assay type: in vivo, rat; details: AVP 0.4 μg/kg i.p.
# Summary of the method: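 Four-hour urine output, osmolality and electrolytes (Na+, K+, Cl−) recorded in water-loaded rats (30 mL/kg deionized water orally) given AVP i.p. at 0.4 μg/kg. Test compounds were given orally at 0.1–100 mg/kg 1 h before AVP; 2–4 rats per compound.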
# [4] = tested on: Vasopressin V1; assay: Vasopressin V1 Antagonist Activity in Conscious Rats (vasopressin vasopressor response); assay type: in vivo, rat; design: Average Change: unit not given here; details: for % Inhibition / Average Change: SHR
# Summary of the method: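 Conscious rats are restrained supine, and under local 2% procaine a PE 10/20 cannula is passed through the ventral caudal tail artery into the lower abdominal aorta. The caudal vein is cannulated for intravenous dosing. Blood pressure is recorded with a Statham P23Db transducer, and vasopressin injections are repeated after compound dosing. Percent antagonism is calculated against the pre-drug vasopressor response taken as 100%.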
# [5] = 10 mg/kg p.o., VAS 0.01 i.u./kg, 30 min
# [6] = 10 mg/kg p.o., VAS 0.01 i.u./kg, 60 min
# [7] = 10 mg/kg p.o., VAS 0.01 i.u./kg, 90 min
# [8] = 10 mg/kg p.o., VAS 0.01 i.u./kg, 120 min
# [9] = 10 mg/kg p.o., VAS 0.01 i.u./kg, 180 min
# [10] = 10 mg/kg p.o., VAS 0.01 i.u./kg, 240 min
# [11] = 10 mg/kg p.o., VAS 0.02 i.u./kg, 30 min
# [12] = 10 mg/kg p.o., VAS 0.02 i.u./kg, 60 min
# [13] = 10 mg/kg p.o., VAS 0.02 i.u./kg, 90 min
# [14] = 10 mg/kg p.o., VAS 0.02 i.u./kg, 120 min
# [15] = 10 mg/kg p.o., VAS 0.02 i.u./kg, 180 min
# [16] = 10 mg/kg p.o., VAS 0.02 i.u./kg, 240 min
# [17] = 10 mg/kg i.v., VAS 0.01 i.u./kg, 30 min
# [18] = 10 mg/kg i.v., VAS 0.01 i.u./kg, 60 min
# [19] = 10 mg/kg i.v., VAS 0.01 i.u./kg, 90 min
# [20] = 10 mg/kg i.v., VAS 0.01 i.u./kg, 120 min
# [21] = 10 mg/kg i.v., VAS 0.01 i.u./kg, 180 min
# [22] = 10 mg/kg i.v., VAS 0.01 i.u./kg, 240 min
# [23] = 10 mg/kg i.v., VAS 0.01 i.u./kg, 300 min
# [24] = 10 mg/kg i.v., VAS 0.02 i.u./kg, 30 min
# [25] = 10 mg/kg i.v., VAS 0.02 i.u./kg, 60 min
# [26] = 10 mg/kg i.v., VAS 0.02 i.u./kg, 90 min
# [27] = 10 mg/kg i.v., VAS 0.02 i.u./kg, 120 min
# [28] = 10 mg/kg i.v., VAS 0.02 i.u./kg, 180 min
# [29] = 10 mg/kg i.v., VAS 0.02 i.u./kg, 240 min
# [30] = 10 mg/kg i.v., VAS 0.02 i.u./kg, 300 min
# T1 sequence (P30560 whole entry): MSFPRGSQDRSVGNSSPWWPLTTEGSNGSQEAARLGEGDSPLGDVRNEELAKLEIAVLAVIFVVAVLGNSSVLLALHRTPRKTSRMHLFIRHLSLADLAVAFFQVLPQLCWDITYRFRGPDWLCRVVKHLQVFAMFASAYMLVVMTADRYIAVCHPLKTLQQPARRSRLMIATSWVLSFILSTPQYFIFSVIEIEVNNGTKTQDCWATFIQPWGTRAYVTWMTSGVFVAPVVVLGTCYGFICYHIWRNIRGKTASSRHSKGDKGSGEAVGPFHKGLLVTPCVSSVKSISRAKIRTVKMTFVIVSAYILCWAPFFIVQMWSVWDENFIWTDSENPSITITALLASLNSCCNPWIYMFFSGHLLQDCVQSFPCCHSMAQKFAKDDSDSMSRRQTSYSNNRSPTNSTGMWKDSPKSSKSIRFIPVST
smiles,measurement,setting,value
"O=C(Nc1ccc(C(=O)N2Cc3cccn3Cc3ccccc32)cc1)c1cc(Cl)ccc1Cl [Example 4, N-[4-(5H-pyrrolo[2,1-c][1,4]benzodiazepin-10(11H)-ylcarbonyl)phenyl]-2,5-dichlorobenzamide]",IC50,[1],120 nM
same,IC50,[2],14 nM
same,Osmolality,[3]; 1 mg/kg orally,1129 mOsm/kg
same,Urine Volume,[3]; 1 mg/kg orally,2 ml/4 hrs
same,Osmolality,[3]; 3 mg/kg orally,646 ± 115 mOsm/kg
same,Urine Volume,[3]; 3 mg/kg orally,9.5 ± 1.2 ml/4 hrs
same,Osmolality,[3]; 10 mg/kg orally,571 mOsm/kg
same,Urine Volume,[3]; 10 mg/kg orally,16.9 ml/4 hrs
same,% Inhibition,[4]; [5],6%
same,Average Change,[4]; [5],44.5
same,% Inhibition,[4]; [6],36%
same,Average Change,[4]; [6],30.5
same,% Inhibition,[4]; [7],19%
same,Average Change,[4]; [7],38.5
same,% Inhibition,[4]; [8],32%
same,Average Change,[4]; [8],32.5
same,% Inhibition,[4]; [9],25%
same,Average Change,[4]; [9],35.5
same,% Inhibition,[4]; [10],39%
same,Average Change,[4]; [10],29
same,% Inhibition,[4]; [11],27%
same,Average Change,[4]; [11],36
same,% Inhibition,[4]; [12],10%
same,Average Change,[4]; [12],44.5
same,% Inhibition,[4]; [13],-5%
same,Average Change,[4]; [13],52
same,% Inhibition,[4]; [14],-2%
same,Average Change,[4]; [14],50.5
same,% Inhibition,[4]; [15],11%
same,Average Change,[4]; [15],44
same,% Inhibition,[4]; [16],47%
same,Average Change,[4]; [16],26
"O=C(Nc1ccc(C(=O)N2Cc3cccn3Cc3ccccc32)cc1)c1ccc(Cl)cc1Cl [Example 6, N-[4-(5H-pyrrolo[2,1-c][1,4]benzodiazepin-10(11H)-ylcarbonyl)phenyl]-2,4-dichlorobenzamide]",IC50,[1],23 nM
same,IC50,[2],3 nM
same,Osmolality,[3]; 1 mg/kg orally,970 mOsm/kg
same,Urine Volume,[3]; 1 mg/kg orally,6 ml/4 hrs
same,Osmolality,[3]; 3 mg/kg orally,519 ± 30 mOsm/kg
same,Urine Volume,[3]; 3 mg/kg orally,15 ± 1.6 ml/4 hrs
same,Osmolality,[3]; 10 mg/kg orally,346 ± 25 mOsm/kg
same,Urine Volume,[3]; 10 mg/kg orally,20.4 ± 1.1 ml/4 hrs
same,Osmolality,[3]; 30 mg/kg orally,616 ± 87 mOsm/kg
same,Urine Volume,[3]; 30 mg/kg orally,17.9 ± 1.3 ml/4 hrs
same,% Inhibition,[4]; [17],85%
same,Average Change,[4]; [17],5.5
same,% Inhibition,[4]; [18],79%
same,Average Change,[4]; [18],7.5
same,% Inhibition,[4]; [19],63%
same,Average Change,[4]; [19],13.5
same,% Inhibition,[4]; [20],59%
same,Average Change,[4]; [20],15
same,% Inhibition,[4]; [21],44%
same,Average Change,[4]; [21],20.5
same,% Inhibition,[4]; [22],34%
same,Average Change,[4]; [22],24
same,% Inhibition,[4]; [23],30%
same,Average Change,[4]; [23],25.5
same,% Inhibition,[4]; [24],62%
same,Average Change,[4]; [24],16
same,% Inhibition,[4]; [25],45%
same,Average Change,[4]; [25],23
same,% Inhibition,[4]; [26],36%
same,Average Change,[4]; [26],27
same,% Inhibition,[4]; [27],30%
same,Average Change,[4]; [27],29.5
same,% Inhibition,[4]; [28],17%
same,Average Change,[4]; [28],35
same,% Inhibition,[4]; [29],15%
same,Average Change,[4]; [29],35.5
same,% Inhibition,[4]; [30],14%
same,Average Change,[4]; [30],36
O=C(Nc1ccc(C(=O)N2Cc3cccn3Cc3ccccc32)cc1)c1ccccc1Cl [Example 7],IC50,[1],10 nM
same,IC50,[2],5 nM
same,Osmolality,[3]; 10 mg/kg orally,780 mOsm/kg
same,Urine Volume,[3]; 10 mg/kg orally,9 ml/4 hrs
same,Osmolality,[3]; 30 mg/kg orally,815 mOsm/kg
same,Urine Volume,[3]; 30 mg/kg orally,12.4 ml/4 hrs
same,% Inhibition,[4]; [17],87%
same,Average Change,[4]; [17],6
same,% Inhibition,[4]; [18],87%
same,Average Change,[4]; [18],6
same,% Inhibition,[4]; [19],82%
same,Average Change,[4]; [19],8.5
same,% Inhibition,[4]; [20],80%
same,Average Change,[4]; [20],9.5
same,% Inhibition,[4]; [21],63%
same,Average Change,[4]; [21],17.5
same,% Inhibition,[4]; [22],56%
same,Average Change,[4]; [22],20.5
same,% Inhibition,[4]; [23],57%
same,Average Change,[4]; [23],20
same,% Inhibition,[4]; [24],87%
same,Average Change,[4]; [24],7.5
same,% Inhibition,[4]; [25],86%
same,Average Change,[4]; [25],8
same,% Inhibition,[4]; [26],78%
same,Average Change,[4]; [26],12.5
same,% Inhibition,[4]; [27],77%
same,Average Change,[4]; [27],13
same,% Inhibition,[4]; [28],59%
same,Average Change,[4]; [28],23
same,% Inhibition,[4]; [29],46%
same,Average Change,[4]; [29],30.5
same,% Inhibition,[4]; [30],59%
same,Average Change,[4]; [30],23
"O=C(Nc1ccc(C(=O)N2Cc3cccn3-c3ccccc32)cc1)c1ccc(Cl)cc1Cl [Example 17, N-[4-(pyrrolo(1,2-a]quinoxalin-5(4H)-ylcarbonyl)phenyl]-2,4-dichloro-benzamide]",IC50,[1],1200 nM
same,IC50,[2],110 nM
same,Osmolality,[3]; 30 mg/kg orally,1374 mOsm/kg
same,Urine Volume,[3]; 30 mg/kg orally,4.1 ml/4 hrs
same,Max. % Inhibition,[4]; 30 mg/kg i.v.,50%
same,Time (of max. % inhibition),[4]; 30 mg/kg i.v.,60 min
"Cc1ccccc1C(=O)Nc1ccc(C(=O)N2Cc3ccnn3Cc3ccccc32)cc1 [Example 210, N-[4-(4H-Pyrazolo[5,1-c][1,4]benzodiazepin-5(10H)-ylcarbonyl)phenyl]-2-methylbenzamide]",IC50,[1],58 nM
same,IC50,[2],16 nM
same,Osmolality,[3]; 10 mg/kg orally,451 mOsm/kg
same,Urine Volume,[3]; 10 mg/kg orally,15.2 ml/4 hrs
same,Max. % Inhibition,[4]; 10 mg/kg i.v.,78%
same,Time (of max. % inhibition),[4]; 10 mg/kg i.v.,90 min
